From patent US20090041818A1, “ANTIVIRAL AGENT, AND FABRIC AND ANTIVIRAL MEMBER […] AGENT” (priority 2003, published 2009)

Test system: influenza type A virus, Cygnus columbianus/Shimane/499/83 (H5N3) (avian strain)

SMILES: [O]=[Ca] [Sample 1, calcium oxide]
- antiviral effect (in words, comparison of samples): high antiviral effect
